*1 amine or outer side, *2 acyl side, *3 side chain or, on linkers, in order; H or OH if unused. Where a SMILES comes first, the peptide text is derived from it. [ ]: non-standard residue; d: D form. The star is where a group is joined. X1 = O=C(C(=O)[*:2])[C@H](CC(F)(F)F)N[*:1]; NH(1S-phenylpropyl) = CC[C@H](N*)c1ccccc1; NH(1R-phenylethyl) = C[C@@H](N*)c1ccccc1; NH(1S-phenylethyl) = C[C@H](N*)c1ccccc1; Phe(2-Me) = Cc1ccccc1C[C@H](N)C(=O)O; NleCONH2 = CCCC[C@H](N*)C(=O)C(N)=O; NH(4-OH-benzyl) = Oc1ccc(CN*)cc1; X3 = CCCC[C@@H](N*)C(=O)C(N)=O; X5 = CC[C@H](N*)c1ccc2ccccc2c1; X6 = C[C@H](N*)c1ccc2ccccc2c1; Suc = O=C(CCC(=O)[*:2])[*:1]; Tle = CC(C)(C)[C@H](N)C(=O)O; X4 = CC(C)[C@H](N*)c1ccccc1; NHBn = c1ccc(CN*)cc1; X2 = COc1cccc(CN*)c1
Assays:
[1] = target: Trypsin (Homo sapiens, UniProt P07477+P07478+P35030); assay: Compound was tested for inhibition of trypsin; format: protein assay
[2] = target: Hepatitis C virus serine protease, NS3/NS4A (Hepatitis C virus, UniProt A3EZI9+D2K2A8); assay: (§1) Inhibition of hepatitis c virus Non structural protein 3 protease/Non structural protein 4A protease; format: protein-complex assay, Hepacivirus hominis
Chain of Hepatitis C virus serine protease, NS3/NS4A (Hepatitis C virus, UniProt A3EZI9+D2K2A8) (D2K2A8 whole entry): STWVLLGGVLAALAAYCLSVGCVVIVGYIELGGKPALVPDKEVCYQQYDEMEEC
Chain of Hepatitis C virus serine protease, NS3/NS4A (Hepatitis C virus, UniProt A3EZI9+D2K2A8) (A3EZI9 whole entry): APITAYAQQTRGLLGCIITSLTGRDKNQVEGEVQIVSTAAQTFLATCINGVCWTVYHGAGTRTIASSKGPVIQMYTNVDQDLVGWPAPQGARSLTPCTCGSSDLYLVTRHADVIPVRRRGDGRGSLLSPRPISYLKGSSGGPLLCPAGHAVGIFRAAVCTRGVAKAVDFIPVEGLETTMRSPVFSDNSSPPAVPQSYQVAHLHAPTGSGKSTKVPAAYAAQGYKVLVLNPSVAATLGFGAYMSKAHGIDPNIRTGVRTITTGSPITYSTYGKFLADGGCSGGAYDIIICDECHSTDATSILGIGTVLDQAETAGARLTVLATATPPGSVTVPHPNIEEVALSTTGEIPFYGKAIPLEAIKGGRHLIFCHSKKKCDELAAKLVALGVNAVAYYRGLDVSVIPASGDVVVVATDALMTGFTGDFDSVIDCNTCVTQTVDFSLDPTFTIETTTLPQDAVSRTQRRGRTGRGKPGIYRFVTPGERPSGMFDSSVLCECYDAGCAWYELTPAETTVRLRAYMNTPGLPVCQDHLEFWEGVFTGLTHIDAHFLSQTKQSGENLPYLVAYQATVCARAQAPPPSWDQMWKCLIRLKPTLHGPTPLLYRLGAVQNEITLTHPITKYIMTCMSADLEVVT

[3] = target: T1, Neutrophil elastase (Homo sapiens, UniProt P08246); assay: Compound was tested for inhibition of Elastase
T1 sequence (P08246 whole entry): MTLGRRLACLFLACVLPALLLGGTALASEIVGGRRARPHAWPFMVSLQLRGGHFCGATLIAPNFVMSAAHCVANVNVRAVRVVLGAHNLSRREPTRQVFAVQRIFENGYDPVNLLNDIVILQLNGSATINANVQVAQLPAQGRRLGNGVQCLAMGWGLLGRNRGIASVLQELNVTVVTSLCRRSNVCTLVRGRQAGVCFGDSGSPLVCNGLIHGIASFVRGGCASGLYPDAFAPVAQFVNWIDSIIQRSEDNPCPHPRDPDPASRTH

[4] = target: Hepatitis C virus serine protease, NS3/NS4A (Hepatitis C virus, UniProt D2K2A8+A3EZI9); assay: as §1; format: protein-complex assay, Hepacivirus hominis
Chain of Hepatitis C virus serine protease, NS3/NS4A (Hepatitis C virus, UniProt D2K2A8+A3EZI9) (D2K2A8 whole entry): as the sequence (D2K2A8 whole entry) above
Chain of Hepatitis C virus serine protease, NS3/NS4A (Hepatitis C virus, UniProt D2K2A8+A3EZI9) (A3EZI9 whole entry): as the sequence (A3EZI9 whole entry) above

Structure (SMILES)	IC50 [4] [nM]	other results
CCCC[C@H](NC(=O)[C@H](CC(C)C)NC(=O)[C@@H](NC(=O)[C@H](Cc1ccccc1C)NC(=O)[C@H](CCC(=O)O)NC(=O)[C@H](CC(=O)O)NC(=O)CCC(=O)O)C(C)(C)C)C(=O)C(N)=O (Suc-DE[Phe(2-Me)][Tle]L-NleCONH2)	–	IC50 [1]: > 200000 nM; IC50 [2]: 11 nM
CCCC[C@@H](NC(=O)[C@H](CC(C)C)NC(=O)[C@@H](NC(=O)[C@H](Cc1ccccc1C)NC(=O)[C@H](CCC(=O)O)NC(=O)[C@H](CC(=O)O)NC(=O)CCC(=O)O)C(C)(C)C)C(=O)C(N)=O (Suc-DE[Phe(2-Me)][Tle]L-X3)	–	IC50 [3]: 12000 nM
Cc1ccccc1C[C@H](NC(=O)[C@H](CCC(=O)O)NC(=O)[C@H](CC(=O)O)NC(=O)CCC(=O)O)C(=O)N[C@H](C(=O)N[C@@H](CC(C)C)C(=O)N[C@@H](CC(F)(F)F)C(=O)C(=O)N[C@H](c1ccccc1)C(C)C)C(C)(C)C (Suc-DE[Phe(2-Me)][Tle]L[X1]-X4)	7	–
CC[C@H](NC(=O)C(=O)[C@H](CC(F)(F)F)NC(=O)[C@H](CC(C)C)NC(=O)[C@@H](NC(=O)[C@H](Cc1ccccc1C)NC(=O)[C@H](CCC(=O)O)NC(=O)[C@H](CC(=O)O)NC(=O)CCC(=O)O)C(C)(C)C)c1ccc2ccccc2c1 (Suc-DE[Phe(2-Me)][Tle]L[X1]-X5)	8	–
Cc1ccccc1C[C@H](NC(=O)[C@H](CCC(=O)O)NC(=O)[C@H](CC(=O)O)NC(=O)CCC(=O)O)C(=O)N[C@H](C(=O)N[C@@H](CC(C)C)C(=O)N[C@@H](CC(F)(F)F)C(=O)C(=O)N[C@@H](C)c1ccc2ccccc2c1)C(C)(C)C (Suc-DE[Phe(2-Me)][Tle]L[X1]-X6)	4	–

More lines, main results first:

IC50 [4] [nM]	Structure (SMILES)	other results
4	Cc1ccccc1C[C@H](NC(=O)[C@H](CCC(=O)O)NC(=O)[C@H](CC(=O)O)NC(=O)CCC(=O)O)C(=O)N[C@H](C(=O)N[C@@H](CC(C)C)C(=O)N[C@@H](CC(F)(F)F)C(=O)C(=O)NCc1ccccc1)C(C)(C)C (Suc-DE[Phe(2-Me)][Tle]L[X1]-NHBn)	–
6	COc1cccc(CNC(=O)C(=O)[C@H](CC(F)(F)F)NC(=O)[C@H](CC(C)C)NC(=O)[C@@H](NC(=O)[C@H](Cc2ccccc2C)NC(=O)[C@H](CCC(=O)O)NC(=O)[C@H](CC(=O)O)NC(=O)CCC(=O)O)C(C)(C)C)c1 (Suc-DE[Phe(2-Me)][Tle]L[X1]-X2)	–
1100	Cc1ccccc1C[C@H](NC(=O)[C@H](CCC(=O)O)NC(=O)[C@H](CC(=O)O)NC(=O)CCC(=O)O)C(=O)N[C@H](C(=O)N[C@@H](CC(C)C)C(=O)N[C@@H](CC(F)(F)F)C(=O)C(=O)N[C@H](C)c1ccccc1)C(C)(C)C (Suc-DE[Phe(2-Me)][Tle]L[X1]-{NH(1R-phenylethyl)})	–
4	Cc1ccccc1C[C@H](NC(=O)[C@H](CCC(=O)O)NC(=O)[C@H](CC(=O)O)NC(=O)CCC(=O)O)C(=O)N[C@H](C(=O)N[C@@H](CC(C)C)C(=O)N[C@@H](CC(F)(F)F)C(=O)C(=O)N[C@@H](C)c1ccccc1)C(C)(C)C (Suc-DE[Phe(2-Me)][Tle]L[X1]-{NH(1S-phenylethyl)})	–
7	CC[C@H](NC(=O)C(=O)[C@H](CC(F)(F)F)NC(=O)[C@H](CC(C)C)NC(=O)[C@@H](NC(=O)[C@H](Cc1ccccc1C)NC(=O)[C@H](CCC(=O)O)NC(=O)[C@H](CC(=O)O)NC(=O)CCC(=O)O)C(C)(C)C)c1ccccc1 (Suc-DE[Phe(2-Me)][Tle]L[X1]-{NH(1S-phenylpropyl)})	–
4	Cc1ccccc1C[C@H](NC(=O)[C@H](CCC(=O)O)NC(=O)[C@H](CC(=O)O)NC(=O)CCC(=O)O)C(=O)N[C@H](C(=O)N[C@@H](CC(C)C)C(=O)N[C@@H](CC(F)(F)F)C(=O)C(=O)NCc1ccc(O)cc1)C(C)(C)C (Suc-DE[Phe(2-Me)][Tle]L[X1]-{NH(4-OH-benzyl)})	–

Source: ChEMBL document CHEMBL1134166, “The identification of alpha-ketoamides as potent inhibitors of hepatitis C virus NS3-4A proteinase” (Bioorg Med Chem Lett, 2001)
